We go through one molecule from patent EP4574175A1, “PRODRUG FOR ANTI-AGING RELATED DISEASES AND USE METHOD THEREFOR” (BEIJING SUNCELL BIO-MEDICAL CO., LTD., priority 2022, dated 2024).

Molecules are shown by their SMILES.

By microsomal CLint is commonly meant a measure of how fast metabolising enzymes remove a compound, apart from limits set by blood flow. As a reminder, the CLint scaled is a measure of how fast metabolising enzymes remove a compound, apart from limits set by blood flow.

Series [1] has as its system normal cells (HEF, HELF, BJ, A549, HUVEC, MRC5). Put plainly: Cell viability test (CCK-8) on normal uninduced cells, A13 vs A13bGa1. Particulars: compared with parent compound A13.
Method: Briefly, the human embryonic skin tissues and the fetal lung tissues obtained from the aborted tissues with the patient's informed consent were minced with the forcep and incubated in 1 mg/ml collagenase IV at 37°C for 1-2 hours. After the enzyme treatment, the cells were collected by centrifugation and resuspended in HEF medium (Dulbecco's modified Eagle medium (DMEM, Gibco) containing 10% fetal bovine serum (FBS, Ausbian), 1% GlutaMAX (Gibco), 1% non-essential amino acids (NEAA, Gibco) and 1% penicillin/streptomycin (Gibco). Gibco). Cells were plated on the 10 cm tissue culture dishes and grown in 10% FBS DMEM. […] They were passaged and cryopreserved according to Lonza's method. A549 cells, BJ cells and MRC5 cells were purchased from ATCC and cultured in DMEM medium containing 10% fetal bovine serum (FBS, Ausbian), and 1% penicillin/streptomycin (Gibco).
Cell Counting Kit-8 (CCK-8) assay was used to assess the cell viability. The senescent and non-senescent cells or chondrocytes were seeded into the 96-well plates and cultured overnight. The cells were then treated with control (0.05% DMSO) or different concentrations of the drug to be tested. […] Absorbance was measured at the wavelength of 450 nm.
Series [2] in a line: Hepatic microsomal metabolic stability.
Series [3] has as its system mouse model of Bleomycin-induced pulmonary fibrosis. Nature of the series: Bleomycin-induced pulmonary fibrosis mouse model. The class given is in vivo, C57 mice. The conditions noted are these: A13 2 mg/kg, A13bGa1 5 mg/kg i.p. How it is done:
(§1) All drugs were mixed in 85% physiological saline, 5% DMSO (Sigma, D8418) and 10% Solutol HS 15 (Sigma, 42966), and administered to mice by intraperitoneal (i.p.) injection. To treat the bleomycin-injured young mice, A13 (2 mg/kg), A13bGa1 (5 mg/kg), or an empty vehicle control was administered three consecutive days per week for four weeks. A1331852 (abbreviated as A13) was purchased from MCE.
Bleomycin was purchased from Selleck. […]. Drug treatment was initiated four days after modelling, and the drug was administered three consecutive days per week for four consecutive weeks, after which the mice were executed for material collection.
All animals (including those found dead, dying, and euthanised) were autopsied, and the lung tissues were preserved. The lungs were separated, the fat and other tissues were removed, the surface fluid was absorbed using a filter paper, and the whole lungs were weighed (those found dead, dying, and euthanised) for calculation of the lung weight index. The right lung and bronchiole were fixed in 10% neutral buffered formalin solution, embedded in paraffin, sectioned, prepared into slices, and stained with HE for a histopathological and morphological observation of the lung. The degree of the lesions such as the inflammatory cell infiltration in the lung tissue were graded according to a 4-grade classification (slight, mild, moderate, severe) using a standard terminology for diagnosis and classification. The left lung tissue was clipped and stored temporarily below -60°C. Lung weight index(%) = lung weight/body weight × 100%. [formula]
Masson trichrome stain kit (Solarbio, G1340) was used to detect fibrosis in the lung tissue. The formalin-fixed, and paraffin-embedded lung sections were dewaxed with xylene, and then rehydrated with 100% alcohol, 95% alcohol and distilled water. The sections were then stained according to the manufacturer's instructions. Afterwards, the sections were rapidly dehydrated with 95% alcohol and 100% alcohol, cleaned with xylene and covered with the coverslips. […]

A short description of series [4]: Hepatic microsomal metabolic stability. The source holds these as a separate data set.
A short description of series [5]: Hepatic microsomal metabolic stability. The source holds these as a separate data set.
The next series concerns platelets. Nature of the series: In vivo platelet toxicity test. Also on record: species or system C57 mice. How it is done:
as §1
A single administration of A13 or A13bG was performed. Female 5-6 week old C57 mice were treated with a single intraperitoneal injection. A13 and A13bG were administered in three different dose groups of 2, 5, and 20 mg/kg. Approximately 50 µl of blood was collected from each mouse at different time points into the EDTA tubes (RAM Scientific) by means of inner canthal blood extraction, and analyzed using a haematology analyzer for a blood routine examination and a platelet counting. Multiple administrations of A13 or A13bG were performed. Female 5-6 week old C57 mice were treated with multiple intraperitoneal injections. A13 and A13bG were administered in three different dose groups of 2, 5 and 20 mg/kg, three consecutive days per week, followed by a 4-day withdrawal for 3 weeks. The time points of administration were in the afternoon of days 0, 1, 2, 7, 8, 9, 14, 15, and 16, and the time points of blood collection and testing were in the morning of days 1, 3, 5, 8, 10, 12, 15, 17, and 19, respectively.
For a blood routine examination, 50 µl of fresh blood was collected from each mouse and immediately mixed with EDTA. Blood samples were analyzed by Celltac Alpha MEK-6400 series haematology analyzer (Nihon Kohden, MEK-6400). Data were expressed as the number of different blood cells or platelets per µl of blood. For the serum biochemical analysis, the blood samples were collected, coagulated for 2 hours at room temperature or overnight at 4°C, and then centrifuged (1000 g, 10 minutes) to obtain serum. A 200 µl of serum was aliquoted and analyzed for alanine aminotransferase (ALT), aspartate aminotransferase (AST), uric acid (UA), and creatinine (CREA) by a chemistry analyzer (Mindray, BS-350E).

In series [6] the test system is mouse model of oxygen-induced retinopathy. Put plainly: Oxygen-induced retinopathy mouse model. The series is classed as in vivo, C57BL6/J mice. The conditions noted are these: single intravitreal injection on postnatal day 12, 50 ng and 100 ng, vs vehicle, IB4 staining at P17. The text has this:
Neonatal C57BL6/J mice were exposed to a 75% hyperoxia chamber (Shanghai Tow-Int Tech Co., Ltd., Ox-100HE) from the 7th to the 12th day after birth, together with the surrogate ICR female mice, and the mice were removed and placed in a normal air environment for feeding after 12 days. Hypoxia-induced abnormal vasoproliferative lesions persisted in the retina of the neonatal mice after they were fed under a hyperoxic condition and then transferred to a normoxic condition. This mouse lesion model mimics the retinal lesion characteristic of some human vision-related diseases, such as proliferative diabetic retinopathy.
Mice on postnatal day 12 were treated with the intravitreal administration of A13bGa1 or vehicle control in each eye of each mouse. […]
The extracted eyeballs of mice were firstly fixed with 4% paraformaldehyde for 1 hour at room temperature. The retina was carefully detached using the micro ophthalmic scissors and the micro forceps, and then placed in the pre-prepared fluorescence-labelled […] IB4 (Vector, FL-1201) staining solution, and stained overnight at 4 degrees Celsius away from light. Retinal sections were made after the completion of staining, and photographed using a confocal fluorescence microscope (Leica, TCS-SP8). Retinal microvascular stained sections were analyzed for the ischaemic areas and the abnormal neovascular areas using ImageJ (NIH, USA).

For `Cc1c(-c2ccc(N3CCc4cccc(C(=O)Nc5nc6ccccc6s5)c4C3)nc2C(=O)OCc2ccc(O[C@@H]3O[C@H](CO)[C@H](O)[C@H](O)[C@H]3O)c([N+](=O)[O-])c2)cnn1CC12CC3CC(CC(C3)C1)C2` [A13bGa1], in series [1], the “toxicity to the normal cells” value is listed as “greatly reduced”. Besides, the “The hepatic extraction ratio (E)” value in series [2] (Monkey) is 0.69; in series [4] (human) it was 0.86; in series [5] (Rat), 0.34. Besides, the microsomal CLint at 1 µM in series [2] (monkey, microsomes) was 65.3 µL/min/mg; in series [5] (rat, microsomes) it was 15.8 µL/min/mg. Also, the CLint scaled at 1 µM is 9800 mL/min/kg in series [2] (monkey, microsomes, The amplified intrinsic clearance Cl int); 30.2 mL/min/kg in series [2] (monkey, microsomes, The predicted intrinsic hepatic clearance Cl int); 18.7 mL/min/kg in series [5] (rat, microsomes). In addition, the “pathological manifestations of the pulmonary fibrosis (Masson staining)” value in series [3] is recorded as “improved”. Also, the lung index entry in series [3] (3 consecutive days per week for 4 weeks) is recorded as “recovered to the normal level”. Besides, the “inflammation and consolidation of the mouse lungs (pathological sections)” value in series [3] (HE staining) is given as “significant improvement”. Besides, in series [4], the CLint scaled is 17.9 mL/min/kg. Further, in the series on platelets (multiple rounds i.p., 3 consecutive days per week for 3 weeks, 2, 5 and 20 mg/kg), the “toxic effects on the platelets” value is “significantly reduced”. Moreover, in the series on platelets (single intraperitoneal administration, 20 mg/kg), the platelet-destroying effect entry was “strong platelet-destroying effect only at the higher dose of 20 mg/kg”. Further, the “toxicity to the platelets” value in the series on platelets (single intraperitoneal administration, 2, 5 and 20 mg/kg) is on record as “significantly less toxic to the platelets than the parent compound A13”. Also, the “area of the abnormal neovascular area” value in series [6] is reported as “significantly reduced”. Besides, the “area of the ischemic lesion area of the retina center” value in series [6] is listed as “significantly reduced”.
